Source: ChEMBL document CHEMBL3885861, “Open TG-GATES”

Species on record: Rattus norvegicus
Test: Open TG-GATES - Regimen: Daily Repeat
Type: toxicity, organism-based, Sprague-Dawley
Parameters: regimen Daily Repeat, gender Male, age 6 weeks
Details: in vivo, po, route gavage; for KIDNEY_L / KIDNEY_R / KIDNEY_TOTAL: tissue Kidney; for ALP / ALT / AST / BUN / CRE / Ca / Cl / DBIL / GLC / IP / K / LDH / Na / RALB / TBIL / TC / TG / TP / gamma-GTP / PL: tissue Plasma
[1] = 200 mg/kg, 72 h, tissue Blood, dose level Middle, time 3 day
[2] = 200 mg/kg, 72 h, dose level Middle, time 3 day
[3] = 200 mg/kg, […], dose level Middle, time 7 day
[4] = 200 mg/kg, […], dose level Middle, time 14 day
[5] = 200 mg/kg, […], dose level Middle, time 28 day
[6] = 200 mg/kg, […], tissue Blood, dose level Middle, time 7 day
[7] = 200 mg/kg, […], tissue Blood, dose level Middle, time 14 day
[8] = 200 mg/kg, […], tissue Blood, dose level Middle, time 28 day
[9] = 600 mg/kg, 72 h, dose level High, time 3 day
[10] = 600 mg/kg, 72 h, tissue Blood, dose level High, time 3 day
[11] = 600 mg/kg, […], dose level High, time 7 day
[12] = 600 mg/kg, […], dose level High, time 14 day
[13] = 600 mg/kg, […], dose level High, time 28 day
[14] = 600 mg/kg, […], tissue Blood, dose level High, time 7 day
[15] = 600 mg/kg, […], tissue Blood, dose level High, time 14 day
[16] = 600 mg/kg, […], tissue Blood, dose level High, time 28 day

CC(=O)Nc1nnc(S(N)(=O)=O)s1 [ACETAZOLAMIDE]
APTT [1]: 19.2 s | Bas [1]: 0% | Eos [1]: 1.2% | Fbg [1]: 313.4 mg/dL | Ht [1]: 39.9% | MCH [1]: 21.3 pg | MCHC [1]: 34.1% | MCV [1]: 62.6 fL | Mono [1]: 3% | Neu [1]: 18.6% | PT [1]: 16.5 s | RBC [1]: 637.6 x10_4/ul | Ret [1]: 5.3% | KIDNEY_L [2]: 1.1 g | KIDNEY_R [2]: 1 g | KIDNEY_TOTAL [2]: 2.1 g | ALP [2]: 1836.6 IU/L | ALT [2]: 45.2 IU/L | AST [2]: 64.2 IU/L | BUN [2]: 20 mg/dL | CRE [2]: 0.2 mg/dL | Ca [2]: 10.8 mg/dL | Cl [2]: 109.6 meq/L | DBIL [2]: 0 mg/dL | GLC [2]: 175.2 mg/dL | IP [2]: 7.5 mg/dL | K [2]: 4.1 meq/L | LDH [2]: 187.8 IU/L | Na [2]: 142.4 meq/L | RALB [2]: 3 g/dL | TBIL [2]: 0.008 mg/dL | TC [2]: 83.2 mg/dL | TG [2]: 81.6 mg/dL | TP [2]: 5.3 g/dL | gamma-GTP [2]: 1.4 IU/L | TERMINAL_BW [3]: 243.9 g | TERMINAL_BW [4]: 281.3 g | TERMINAL_BW [5]: 340.5 g | APTT [6]: 20 s | Bas [6]: 0% | Eos [6]: 1% | Fbg [6]: 338 mg/dL | Ht [6]: 39% | MCH [6]: 21.1 pg | MCHC [6]: 35.4% | MCV [6]: 59.7 fL | Mono [6]: 2.6% | RBC [6]: 653.4 x10_4/ul | Ret [6]: 5.9% | APTT [7]: 22 s | Bas [7]: 0% | Eos [7]: 0.6% | Fbg [7]: 302.4 mg/dL | Ht [7]: 40.2% | MCH [7]: 20.4 pg | MCHC [7]: 35.2% | MCV [7]: 57.9 fL | Mono [7]: 1.4% | Neu [7]: 17.6% | RBC [7]: 696.2 x10_4/ul | Ret [7]: 4.5% | APTT [8]: 24.7 s | Bas [8]: 0% | Eos [8]: 0.8% | Fbg [8]: 312.2 mg/dL | Ht [8]: 42% | MCH [8]: 19.3 pg | MCHC [8]: 34.7% | Mono [8]: 1.8% | PT [8]: 16.5 s | RBC [8]: 757.6 x10_4/ul | Ret [8]: 3% | KIDNEY_L [3]: 1.1 g | KIDNEY_R [3]: 1.1 g | KIDNEY_TOTAL [3]: 2.2 g | KIDNEY_L [4]: 1.2 g | KIDNEY_R [4]: 1.2 g | KIDNEY_TOTAL [4]: 2.5 g | KIDNEY_L [5]: 1.4 g | KIDNEY_R [5]: 1.4 g | KIDNEY_TOTAL [5]: 2.8 g | ALP [3]: 1704.2 IU/L | ALT [3]: 44 IU/L | AST [3]: 67.4 IU/L | BUN [3]: 20.4 mg/dL | CRE [3]: 0.2 mg/dL | Ca [3]: 10.7 mg/dL | Cl [3]: 110.8 meq/L | DBIL [3]: 0 mg/dL | GLC [3]: 186.8 mg/dL | IP [3]: 6.7 mg/dL | K [3]: 4.2 meq/L | LDH [3]: 179 IU/L | Na [3]: 143.6 meq/L | PL [3]: 140.2 mg/dL | RALB [3]: 2.9 g/dL | TBIL [3]: 0 mg/dL | TC [3]: 69.8 mg/dL | TG [3]: 133.8 mg/dL | TP [3]: 5.1 g/dL | gamma-GTP [3]: 1.4 IU/L | ALP [4]: 1326.4 IU/L | ALT [4]: 42 IU/L | AST [4]: 65.6 IU/L | BUN [4]: 19 mg/dL | CRE [4]: 0.2 mg/dL | Ca [4]: 10.6 mg/dL | Cl [4]: 107.4 meq/L | DBIL [4]: 0 mg/dL | GLC [4]: 184.4 mg/dL | IP [4]: 6.7 mg/dL | K [4]: 3.7 meq/L | LDH [4]: 139 IU/L | Na [4]: 143.8 meq/L | PL [4]: 142.4 mg/dL | RALB [4]: 3.1 g/dL | TBIL [4]: 0.002 mg/dL | TC [4]: 69.8 mg/dL | TP [4]: 5.6 g/dL | gamma-GTP [4]: 2 IU/L | ALP [5]: 1449.8 IU/L | ALT [5]: 44.2 IU/L | AST [5]: 69 IU/L | BUN [5]: 17.2 mg/dL | CRE [5]: 0.2 mg/dL | Cl [5]: 108.2 meq/L | DBIL [5]: 0 mg/dL | GLC [5]: 179.6 mg/dL | IP [5]: 5.4 mg/dL | K [5]: 3.8 meq/L | LDH [5]: 136.8 IU/L | Na [5]: 141.8 meq/L | PL [5]: 159 mg/dL | RALB [5]: 3.2 g/dL | TBIL [5]: 0.002 mg/dL | TC [5]: 81.4 mg/dL | TG [5]: 136.4 mg/dL | TP [5]: 6 g/dL | gamma-GTP [5]: 2.4 IU/L | TERMINAL_BW [9]: 195.4 g | APTT [10]: 18.7 s | Bas [10]: 0% | Eos [10]: 1% | Fbg [10]: 285 mg/dL | Ht [10]: 41.9% | Lym [10]: 86% | MCH [10]: 20.5 pg | MCHC [10]: 34.2% | MCV [10]: 59.9 fL | Mono [10]: 2.4% | Neu [10]: 9.6% | PT [10]: 17.7 s | RBC [10]: 699.4 x10_4/ul | Ret [10]: 3.9% | KIDNEY_L [9]: 0.9 g | KIDNEY_R [9]: 0.9 g | KIDNEY_TOTAL [9]: 1.8 g | ALP [9]: 1356 IU/L | ALT [9]: 43 IU/L | AST [9]: 57.8 IU/L | BUN [9]: 22.6 mg/dL | CRE [9]: 0.2 mg/dL | Ca [9]: 10.8 mg/dL | Cl [9]: 116 meq/L | DBIL [9]: 0 mg/dL | GLC [9]: 186.6 mg/dL | IP [9]: 7.9 mg/dL | K [9]: 4.1 meq/L | LDH [9]: 211.2 IU/L | Na [9]: 142.6 meq/L | PL [9]: 151.8 mg/dL | RALB [9]: 3 g/dL | TBIL [9]: 0.006 mg/dL | TC [9]: 84 mg/dL | TG [9]: 90.6 mg/dL | TP [9]: 5.4 g/dL | gamma-GTP [9]: 1 IU/L | TERMINAL_BW [11]: 226.8 g | TERMINAL_BW [12]: 263.9 g | TERMINAL_BW [13]: 330.6 g | APTT [14]: 19.2 s | Bas [14]: 0% | Eos [14]: 1% | Fbg [14]: 314.4 mg/dL | Ht [14]: 39.9% | MCH [14]: 21 pg | MCHC [14]: 34.5% | MCV [14]: 60.9 fL | Mono [14]: 2.4% | RBC [14]: 656.2 x10_4/ul | Ret [14]: 6% | APTT [15]: 21.5 s | Bas [15]: 0% | Eos [15]: 0.8% | Fbg [15]: 315.6 mg/dL | MCH [15]: 20.4 pg | MCHC [15]: 35.3% | MCV [15]: 57.8 fL | Mono [15]: 2.4% | Neu [15]: 23.6% | PT [15]: 16.7 s | RBC [15]: 708 x10_4/ul | Ret [15]: 5.3% | APTT [16]: 23 s | Bas [16]: 0% | Eos [16]: 1% | Fbg [16]: 306.4 mg/dL | Ht [16]: 42.1% | MCH [16]: 19.4 pg | MCHC [16]: 34% | MCV [16]: 57 fL | Mono [16]: 2.8% | PT [16]: 16.9 s | RBC [16]: 739.2 x10_4/ul | Ret [16]: 3.4% | KIDNEY_L [11]: 1.1 g | KIDNEY_R [11]: 1.1 g | KIDNEY_TOTAL [11]: 2.1 g | KIDNEY_L [12]: 1.2 g | KIDNEY_R [12]: 1.3 g | KIDNEY_TOTAL [12]: 2.5 g | KIDNEY_L [13]: 1.4 g | KIDNEY_R [13]: 1.4 g | KIDNEY_TOTAL [13]: 2.8 g | ALP [11]: 1613 IU/L | ALT [11]: 46 IU/L | AST [11]: 71.6 IU/L | BUN [11]: 20 mg/dL | CRE [11]: 0.2 mg/dL | Ca [11]: 10.9 mg/dL | Cl [11]: 114.2 meq/L | DBIL [11]: 0 mg/dL | GLC [11]: 179.8 mg/dL | IP [11]: 7.2 mg/dL | K [11]: 4.2 meq/L | LDH [11]: 162.8 IU/L | Na [11]: 144.6 meq/L | PL [11]: 167.4 mg/dL | RALB [11]: 3 g/dL | TBIL [11]: 0 mg/dL | TC [11]: 84.2 mg/dL | TG [11]: 124 mg/dL | TP [11]: 5.4 g/dL | gamma-GTP [11]: 1.2 IU/L | ALP [12]: 1257.6 IU/L | ALT [12]: 40.4 IU/L | AST [12]: 61.4 IU/L | BUN [12]: 18.8 mg/dL | CRE [12]: 0.2 mg/dL | Ca [12]: 10.5 mg/dL | Cl [12]: 110.6 meq/L | DBIL [12]: 0 mg/dL | GLC [12]: 181.8 mg/dL | IP [12]: 7 mg/dL | K [12]: 3.7 meq/L | LDH [12]: 141.6 IU/L | Na [12]: 143.4 meq/L | PL [12]: 152.2 mg/dL | RALB [12]: 3 g/dL | TBIL [12]: 0.004 mg/dL | TC [12]: 76.2 mg/dL | TG [12]: 130.4 mg/dL | TP [12]: 5.5 g/dL | gamma-GTP [12]: 1.8 IU/L | ALP [13]: 1120.2 IU/L | AST [13]: 66.4 IU/L | BUN [13]: 18.4 mg/dL | CRE [13]: 0.2 mg/dL | Ca [13]: 10.2 mg/dL | Cl [13]: 111.2 meq/L | DBIL [13]: 0 mg/dL | GLC [13]: 178 mg/dL | IP [13]: 5.6 mg/dL | K [13]: 3.8 meq/L | LDH [13]: 149 IU/L | Na [13]: 142.6 meq/L | PL [13]: 136.2 mg/dL | RALB [13]: 3.2 g/dL | TBIL [13]: 0.01 mg/dL | TC [13]: 71.6 mg/dL | TG [13]: 115.4 mg/dL | TP [13]: 5.6 g/dL | gamma-GTP [13]: 2.2 IU/L
